The values that follow come from patent US20240293558A1, “KRAS INHIBITOR CONJUGATES” (Erasca, Inc., priority 2021, published 2024).

For test [1], the target named is KRAS G12D (Homo sapiens, UniProt P01116, G12D). Description: In-vitro RAS-RAF binding assay (RRB), HTRF/FRET. It counts as biochemical. Details: Biotinylated KRAS protein amino acids 1-169 (produced at Erasca); made in house. Conditions: Table 2, average of multiple runs of each compound; read-out: Inhibition of RAS-RAF Binding (in-vitro) KRAS (G12D) IC50. The procedure, abridged:
(§1)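 Compounds preincubated with terbium-labelled biotinylated KRAS (aa 1-169, 30 nM) before 60 min SOS1-catalysed exchange to GTPgS. Binding of the d2-labelled cRAF RBD (30 nM) is read as FRET at equilibrium in duplicate. Buffer: 50 mM HEPES pH 7.5, 100 mM NaCl, 1 mM MgCl2, 1 mM DTT.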

Test [2] has as its target T1, KRAS (WT) (Homo sapiens, UniProt P01116).
T1 construct: Biotinylated KRAS protein amino acids 1-169 (produced at Erasca); made in house
Description: In-vitro RAS-RAF binding assay (RRB), HTRF/FRET. As to conditions: Table 2, average of multiple runs of each compound; read-out: Inhibition of RAS-RAF Binding (in-vitro) KRAS (WT) IC50. The format is biochemical. An outline of the steps: as §1
On the technique in general: Time-resolved FRET reads energy transfer from a long-lived donor to a nearby acceptor.

T1 sequence (P01116 1-169 isoform P01116-2): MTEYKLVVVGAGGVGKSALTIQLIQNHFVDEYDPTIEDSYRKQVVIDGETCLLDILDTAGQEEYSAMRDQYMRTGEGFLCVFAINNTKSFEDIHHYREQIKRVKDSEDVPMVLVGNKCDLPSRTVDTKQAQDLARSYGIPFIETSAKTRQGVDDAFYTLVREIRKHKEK
KRAS G12D, sequence (P01116 1-169 isoform P01116-2 G12D): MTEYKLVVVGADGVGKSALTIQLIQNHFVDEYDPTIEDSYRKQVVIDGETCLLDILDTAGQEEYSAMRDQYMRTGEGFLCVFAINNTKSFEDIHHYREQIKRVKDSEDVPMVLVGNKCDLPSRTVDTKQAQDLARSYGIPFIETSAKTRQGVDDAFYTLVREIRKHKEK

As usually defined, the IC50 is the concentration needed to halve the response being measured. `C#Cc1c(F)ccc2cc(O)cc(-c3ncc4c(N5CC6CCC(C5)N6)nc(OC[C@@H]5CCCN5CCCOCCC(=O)N[C@H](C(=O)N5C[C@H](O)C[C@H]5C(=O)N[C@@H](C)c5ccc(-c6cccc(F)c6F)cc5)C(C)(C)C)nc4c3F)c12` [Example 51, (2S,4R)-1-((2S)-2-(3-(3-((2S)-2-(((4-(3,8-diazabicyclo[3.2.1]octan-3-yl)-7-(8-ethynyl-7-fluoro-3-hydroxynaphthalen-1-yl)-8-fluoropyrido[4,3-d]pyrimidin-2-yl)oxy)methyl)pyrrolidin-1-yl)propoxy)propanamido)-3,3-dimethylbutanoyl)-N-((S)-1-(2′,3′-difluoro-[1,1′-biphenyl]-4-yl)ethyl)-4-hydroxypyrrolidine-2-carboxamide]: the IC50 in test [1] was 9.09 nM; in test [2] it was 95.7 nM.
On to `C#Cc1c(F)ccc2cc(O)cc(-c3ncc4c(N5CC6CCC(C5)N6)nc(OC[C@@H]5CCCN5CCCOCCC(=O)N[C@H](C(=O)N5C[C@H](O)C[C@H]5C(=O)N[C@@H](CO)c5ccc(-c6c(F)cccc6F)cc5)C(C)(C)C)nc4c3F)c12` [Example 32, (2S,4R)-1-((2S)-2-(3-(3-((2S)-2-(((4-(3,8-diazabicyclo[3.2.1]octan-3-yl)-7-(8-ethynyl-7-fluoro-3-hydroxynaphthalen-1-yl)-8-fluoropyrido[4,3-d]pyrimidin-2-yl)oxy)methyl)pyrrolidin-1-yl)propoxy)propanamido)-3,3-dimethylbutanoyl)-N—((R)-1-(2′,6′-difluoro-[1,1′-biphenyl]-4-yl)-2-hydroxyethyl)-4-hydroxypyrrolidine-2-carboxamide], for which the IC50 in test [1] is 8.23 nM; in test [2], 30.3 nM.
With `C#Cc1c(F)ccc2cc(O)cc(-c3ncc4c(N5CC6CCC(C5)N6)nc(OC[C@@H]5CCCN5CCCOCCC(=O)N[C@H](C(=O)N5C[C@H](O)C[C@H]5C(=O)N[C@@H](C)c5ccc(-c6cc(F)cc(F)c6F)cc5)C(C)(C)C)nc4c3F)c12` [Example 58, (2S,4R)-1-((2S)-2-(3-(3-((2S)-2-(((4-(3,8-diazabicyclo[3.2.1]octan-3-yl)-7-(8-ethynyl-7-fluoro-3-hydroxynaphthalen-1-yl)-8-fluoropyrido[4,3-d]pyrimidin-2-yl)oxy)methyl)pyrrolidin-1-yl)propoxy)propanamido)-3,3-dimethylbutanoyl)-4-hydroxy-N-((S)-1-(2′,3′,5′-trifluoro-[1,1′-biphenyl]-4-yl)ethyl)pyrrolidine-2-carboxamide], the half-inhibitory concentration (IC50) in test [1] is 9.55 nM; in test [2] it was 65.9 nM.
With `C#Cc1c(F)ccc2cc(O)cc(-c3ncc4c(N5CC6CCC(C5)N6)nc(OC[C@@H]5CCCN5CCCOCCC(=O)N[C@H](C(=O)N5C[C@H](O)C[C@H]5C(=O)N[C@@H](C)c5ccc(-c6c(C)ccnc6C)cc5)C(C)(C)C)nc4c3F)c12` [Example 47, (2S,4R)-1-((2S)-2-(3-(3-((2S)-2-(((4-(3,8-diazabicyclo[3.2.1]octan-3-yl)-7-(8-ethynyl-7-fluoro-3-hydroxynaphthalen-1-yl)-8-fluoropyrido[4,3-d]pyrimidin-2-yl)oxy)methyl)pyrrolidin-1-yl)propoxy)propanamido)-3,3-dimethylbutanoyl)-N-((S)-1-(4-(2,4-dimethylpyridin-3-yl)phenyl)ethyl)-4-hydroxypyrrolidine-2-carboxamide], the IC50 in test [1] was found to be 7.67 nM; in test [2], 22.2 nM.
As to `C#Cc1c(F)ccc2cc(O)cc(-c3ncc4c(N5CC6CCC(C5)N6)nc(OCCN5CCC(C)(COc6cc([C@H](C(=O)N7C[C@H](O)C[C@H]7C(=O)N[C@@H](C)c7ccc(-c8c(F)cc(F)cc8F)cc7)C(C)C)on6)CC5)nc4c3F)c12` [Example 64, (2S,4R)-1-((2R)-2-(3-((1-(2-((4-(3,8-diazabicyclo[3.2.1]octan-3-yl)-7-(8-ethynyl-7-fluoro-3-hydroxynaphthalen-1-yl)-8-fluoropyrido[4,3-d]pyrimidin-2-yl)oxy)ethyl)-4-methylpiperidin-4-yl)methoxy)isoxazol-5-yl)-3-methylbutanoyl)-4-hydroxy-N-((S)-1-(2′,4′,6′-trifluoro-[1,1′-biphenyl]-4-yl)ethyl)pyrrolidine-2-carboxamide], the IC50 was 9.62 nM in test [1] and 1410 nM in test [2].
